Data from patent US20120258980A1, “Antibacterial Agent for Drug-Resistant Bacteria, Method for Screening for Same, and Use of Same” (priority 2009, published 2012).
Read-outs that look alike come from different tables or passages of the source.

Columns and labels:
[1] = test system: VRSA clinical isolates; conditions: based on NARSA, cited from earlier work
[2] = test system: MRSA, CA-MRSA and MSSA of Staphylococcus aureus; test: MIC measurement, Test Example 4 (MRSA, CA-MRSA and MSSA strains); assay type: cell-based
Description: (§1) Each of the bacterial strains listed in Table 1-1 was shake-cultured at 37° C. overnight in 4 mL of a medium (Tryptical Soy Broth: TSB, product of Becton Dickinson and Company). FDA209P was used as a control.
(§2) After completion of culturing, the resultant culture was suspended in a cation-adjusted Mueller Hinton Broth (CAMHB, product of Becton Dickinson and Company). Then, the obtained bacterial culture was adjusted in absorbance with the CAMHB so that the absorbance at 578 nm of the bacterial culture was adjusted to 0.3 measured by an absorption spectrometer. In addition, the resultant bacterial culture was 500-fold diluted with the CAMHB.
(§3) Each of the 500-fold diluted, pre-cultured bacterial cultures was added at 50 μL/well to the CAMHB containing the quinolones and the nybomycins at various concentrations (50 μL/well), followed by statically culturing at 37° C. overnight.
(§4) After completion of culturing, the growth of the bacteria was visually determined based on turbidity to measure MIC in each bacterial strain.
Glycopeptides, imipenem, quinolones and nybomycins were studied for antibacterial activity against the bacterial strains listed in Table 2-1; i.e., MRSA, CA-MRSA and MSSA of Staphylococcus aureus.

[3] = test system: VISA clinical isolates of MRSA (VI-MRSA) and of MSSA (VI-MSSA); test: microbe, parasite or virus in culture; assay type: cell-based, Staphylococcus aureus
Description: as §1, §2, §3, §4
Here, the glycopeptides used were VCM and TEIC. The β-lactam used was OXA.

For teicoplanin, the MIC ([1]; VRS1, VRSA, Michigan) is listed as 64 µg/mL, the MIC ([1]; VRS2, VRSA, Pennsylvania) is listed as 8 µg/mL and the MIC ([1]; VRS3, VRSA, New York) is listed as 16 µg/mL. The MIC ([1]; VRS4, VRSA, New York) was 32 µg/mL, the MIC ([1]; VRS5, VRSA, Michigan) was 128 µg/mL and the MIC ([1]; VRS6, VRSA, Michigan) was greater than 256 µg/mL. For the same substance, the MIC ([1]; VRS7, VRSA, Michigan) was greater than 256 µg/mL, the MIC ([2]; ATCC 29213, MSSA) was 2 µg/mL and the MIC ([2]; COL, MRSA) was 2 µg/mL. It also gave an MIC ([2]; FDA209P, MSSA) of 0.06 µg/mL, an MIC ([2]; ISA12-1, MRSA) of 1 µg/mL and an MIC ([2]; ISA12-2, MRSA) of 1 µg/mL. The MIC ([2]; ISA35-1, MRSA) was 2 µg/mL, the MIC ([2]; ISA37-1, MSSA) was 1 µg/mL and the MIC ([2]; ISA49-1, MSSA) was 0.5 µg/mL. The MIC ([2]; ISA51-1, MSSA) was 0.5 µg/mL, the MIC ([2]; ISA56-3, MRSA) was 4 µg/mL and the MIC ([2]; ISA58-1, MRSA) was 2 µg/mL. For the same substance, the MIC ([2]; ISA62-1, MRSA) was 1 µg/mL, the MIC ([2]; ISA73-1, MSSA) was 2 µg/mL and the MIC ([2]; KBSA32, MRSA) was 1 µg/mL. It also gave an MIC ([2]; KBSA34, MRSA) of 1 µg/mL, an MIC ([2]; KBSA72, MRSA) of 1 µg/mL and an MIC ([2]; KBSA96, MRSA) of 1 µg/mL. The MIC ([2]; KBSA171, MRSA) was 0.25 µg/mL, the MIC ([2]; KSA24, MRSA) was 1 µg/mL and the MIC ([2]; KSA31, MRSA) was 1 µg/mL. For the same substance, the MIC ([2]; KSA36, MRSA) was 1 µg/mL, the MIC ([2]; MW2, CA-MRSA) was 0.5 µg/mL and the MIC ([2]; N315, MRSA) was 0.25 µg/mL. It also gave an MIC ([2]; NCTC 8325, MSSA) of 0.5 µg/mL, an MIC ([2]; USA300 FPR3757, CA-MRSA) of 1 µg/mL and an MIC ([3]; 99/3700-W, VI-MRSA, The United Kingdom) of 2 µg/mL. For the same substance, the MIC ([3]; 99/3759-V, VI-MRSA, The United Kingdom) was 8 µg/mL, the MIC ([3]; 28160, VI-MRSA, South African Republic) was 4 µg/mL and the MIC ([3]; 98141, VI-MRSA, France) was 4 µg/mL. It also gave an MIC ([3]; A7 (JCSC4842), VI-MRSA, Taiwan) of 8 µg/mL, an MIC ([3]; AMC11094, VI-MRSA, Korea) of 8 µg/mL and an MIC ([3]; B7 (JCSC4852), VI-MRSA, Taiwan) of 16 µg/mL. The MIC ([3]; BR1, VI-MRSA, Brazil) was 2 µg/mL, the MIC ([3]; BR2, VI-MRSA, Brazil) was 1 µg/mL and the MIC ([3]; BR3, VI-MRSA, Brazil) was 4 µg/mL. The MIC ([3]; BR4, VI-MRSA, Brazil) was 8 µg/mL, the MIC ([3]; BR5, VI-MRSA, Brazil) was 4 µg/mL and the MIC ([3]; HIP06297, VI-MRSA, America) was 8 µg/mL. The MIC ([3]; HIP06854, VI-MRSA, America) was 2 µg/mL, the MIC ([3]; HIP07920, VI-MRSA, America) was 2 µg/mL and the MIC ([3]; HIP07930, VI-MRSA, America) was 4 µg/mL. The MIC ([3]; HIP08926, VI-MRSA, America) was 4 µg/mL, the MIC ([3]; HIP09143, VI-MRSA, America) was 4 µg/mL and the MIC ([3]; HIP09313, VI-MRSA, America) was 4 µg/mL. For the same substance, the MIC ([3]; HIP09433, VI-MRSA, America) was 8 µg/mL, the MIC ([3]; HIP09662, VI-MRSA, America) was 4 µg/mL and the MIC ([3]; HIP09735, VI-MRSA, America) was 4 µg/mL. It also gave an MIC ([3]; HIP09737, VI-MSSA, America) of 4 µg/mL, an MIC ([3]; HIP09740, VI-MRSA, America) of 4 µg/mL and an MIC ([3]; HIP10267, VI-MRSA, America) of 4 µg/mL. The MIC ([3]; HIP10540, VI-MRSA, America) was 16 µg/mL, the MIC ([3]; HIP12864, VI-MRSA, America) was 8 µg/mL and the MIC ([3]; HIP13036, VI-MRSA, America) was 4 µg/mL. It also gave an MIC ([3]; HIP13057, VI-MRSA, America) of 8 µg/mL, an MIC ([3]; IL (HIP7737), VI-MRSA, America) of 4 µg/mL and an MIC ([3]; JCSC7193, VI-MRSA, Thailand) of 8 µg/mL. For the same substance, the MIC ([3]; JCSC7195, VI-MRSA, Thailand) was 8 µg/mL, the MIC ([3]; JCSC7203, VI-MRSA, Thailand) was 4 µg/mL and the MIC ([3]; LIM2, VI-MRSA, France) was 8 µg/mL. The MIC ([3]; LY-1999-01, VI-MSSA, Oman) was 8 µg/mL, the MIC ([3]; LY-1999-03, VI-MRSA, Oman) was 8 µg/mL and the MIC ([3]; MI (HIP5827), VI-MRSA, America) was 8 µg/mL. The MIC ([3]; Mu3, VI-MRSA, Japan) was 8 µg/mL, the MIC ([3]; Mu50, VI-MRSA, Japan) was 16 µg/mL and the MIC ([3]; NJ (HIP5836), VI-MRSA, America) was 8 µg/mL. It also gave an MIC ([3]; NRS76, VI-MSSA, America) of 4 µg/mL, an MIC ([3]; NRS79, VI-MRSA, America) of 8 µg/mL and an MIC ([3]; NRS118, VI-MRSA, America) of 8 µg/mL. The MIC ([3]; NRS126, VI-MRSA, America) was 2 µg/mL, the MIC ([3]; P1V44, VI-MSSA, Belgium) was 16 µg/mL and the MIC ([3]; PC, VI-MRSA, America) was 4 µg/mL. The MIC ([3]; SA MER-S6, VI-MSSA, France) was 8 µg/mL, the MIC ([3]; SA MER-S12, VI-MSSA, France) was 16 µg/mL and the MIC ([3]; SA MER-S20, VI-MSSA, France) was 32 µg/mL.
